Values joined by “and” are separate entries in the source; they are usually repeats but may differ in a detail not shown here. Equal values may be shown once. Inconclusive results and toxic doses are left out. Rule for the calls: active = survival T/C of 150% or more; inactive = T/C below 125% in these data.
Tested on: P388 leukemia ip, CD2F1 mice, survival T/C
Assay: NCI In Vivo Anticancer Drug Screen. Data for tumor model P388 Leukemia (intraperitoneal) in CD2F1 (CDF1) mice
Details: endpoint: median survival time, higher = longer survival
Summary of the method: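 Mice carrying the transplanted tumor received test compound or vehicle. Survival was recorded in each group, and the value is the treated-group measurement divided by that of the vehicle-treated control group.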

[1] = dose: 50.0 mg/kg/injection, schedule: Q01DX005 (ip), vehicle: Klucel (hydroxypropylcellulose) (HPC)
[2] = dose: 100.0 mg/kg/injection, schedule: Q04DX003 (ip), vehicle: Klucel (hydroxypropylcellulose) (HPC)
[3] = dose: 200.0 mg/kg/injection, schedule: Q04DX003 (ip), vehicle: Klucel (hydroxypropylcellulose) (HPC)
[4] = dose: 400.0 mg/kg/injection, schedule: Q04DX003 (ip), vehicle: Klucel (hydroxypropylcellulose) (HPC)
[5] = dose: 50.0 mg/kg/injection, schedule: Q01DX009 (ip), vehicle: saline with Tween-80
[6] = dose: 100.0 mg/kg/injection, schedule: Q01DX009 (ip), vehicle: saline with Tween-80
[7] = dose: 200.0 mg/kg/injection, schedule: Q01DX009 (ip), vehicle: saline with Tween-80
[8] = dose: 100.0 mg/kg/injection, schedule: Q01DX005 (ip), vehicle: Klucel (hydroxypropylcellulose) (HPC)
[9] = dose: 200.0 mg/kg/injection, schedule: Q01DX005 (ip), vehicle: Klucel (hydroxypropylcellulose) (HPC)
[10] = dose: 60.0 mg/kg/injection, schedule: Q01DX005 (ip), vehicle: saline with Tween-80
[11] = dose: 120.0 mg/kg/injection, schedule: Q01DX005 (ip), vehicle: saline with Tween-80
[12] = dose: 240.0 mg/kg/injection, schedule: Q01DX005 (ip), vehicle: saline with Tween-80
[13] = dose: 50.0 mg/kg/injection, schedule: Q01DX009 (ip), vehicle: Klucel (hydroxypropylcellulose) (HPC)
[14] = dose: 100.0 mg/kg/injection, schedule: Q01DX009 (ip), vehicle: Klucel (hydroxypropylcellulose) (HPC)
[15] = dose: 200.0 mg/kg/injection, schedule: Q01DX009 (ip), vehicle: Klucel (hydroxypropylcellulose) (HPC)
[16] = dose: 400.0 mg/kg/injection, schedule: Q01DX009 (ip), vehicle: saline with Tween-80
[17] = dose: 25.0 mg/kg/injection, schedule: Q01DX009 (ip), vehicle: saline with Tween-80

Measured: T/C

NCCC(=O)OC1CCCc2c(O)c3c(c(O)c21)C(=O)c1ccccc1C3=O (configuration not stated)
inactive: dose: 3.12 mg/kg/injection, schedule: Q01DX009 (ip), vehicle: water 103 % of control | dose: 6.25 mg/kg/injection, schedule: Q01DX009 (ip), vehicle: water 94 % of control | dose: 12.5 mg/kg/injection, schedule: Q01DX009 (ip), vehicle: water 100 % of control | dose: 25.0 mg/kg/injection, schedule: Q01DX009 (ip), vehicle: water 93 % of control | dose: 50.0 mg/kg/injection, schedule: Q01DX009 (ip), vehicle: water 93 % of control

Nc1cc(Cl)c(N(CCO)C2=NCCN2)c(Cl)c1
inactive: dose: 12.5 mg/kg/injection, schedule: Q01DX005 (ip), vehicle: Klucel (hydroxypropylcellulose) (HPC) 92 % of control | dose: 25.0 mg/kg/injection, schedule: Q01DX005 (ip), vehicle: Klucel (hydroxypropylcellulose) (HPC) 88 % of control | [1] 105 % of control and 89 % of control

O=C1C=CC(=NS(=O)(=O)c2ccccc2)C=C1
inactive: dose: 12.5 mg/kg/injection, schedule: Q01DX001 (ip), vehicle: other 100 % of control | dose: 25.0 mg/kg/injection, schedule: Q01DX001 (ip), vehicle: other 100 % of control | dose: 50.0 mg/kg/injection, schedule: Q01DX001 (ip), vehicle: other 100 % of control

NC(CCCOS(=O)(=O)O)Cc1ccc2ccccc2c1 (configuration not stated)
inactive: [2] 100 % of control | [3] 100 % of control | [4] 94 % of control

C=CCN(CC=C)c1cc(Cl)nnc1Cl
inactive: dose: 25.0 mg/kg/injection, schedule: Q01DX009 (ip), vehicle: other 104 % of control | dose: 50.0 mg/kg/injection, schedule: Q01DX009 (ip), vehicle: other 102 % of control | dose: 100.0 mg/kg/injection, schedule: Q01DX009 (ip), vehicle: other 103 % of control | dose: 200.0 mg/kg/injection, schedule: Q01DX009 (ip), vehicle: other 109 % of control

CSc1cc(SC)c(SC)nn1
inactive: [5] 106 % of control | [6] 109 % of control | [7] 98 % of control

Fc1ccc(N2C(c3ccccc3)=N[C@@H](N3CCOCC3)[C@@H]2N2CCOCC2)cc1
inactive: [1] 102 % of control | [8] 100 % of control | [9] 93 % of control

C=Cc1c(C#N)nc(C)c(C)c1-c1ccc(OC)c(OC)c1OCc1ccccc1
inactive: [1] 101 % of control | [8] 95 % of control | [9] 108 % of control

[Co+2].[O-]c1ccccc1/C=N/Nc1ccccn1.[O-]c1ccccc1/C=N/Nc1ccccn1
inactive: dose: 100.0 mg/kg/injection, schedule: Q04DX002 (ip), vehicle: saline with Tween-80 91 % of control | dose: 200.0 mg/kg/injection, schedule: Q04DX002 (ip), vehicle: saline with Tween-80 90 % of control | dose: 400.0 mg/kg/injection, schedule: Q04DX002 (ip), vehicle: saline with Tween-80 95 % of control

COC(=O)c1nnn(-c2cc(Cl)ccc2Cl)c1C(=O)c1ccc(Cl)c(Cl)c1
inactive: [10] 99 % of control | [11] 96 % of control | [12] 87 % of control

O=C(NC(CO)C(=O)O)OCc1ccccc1 (configuration not stated)
inactive: [13] 94 % of control | [14] 99 % of control | [15] 89 % of control

O=c1cc(CO)[nH]cc1O
inactive: [13] 99 % of control | [14] 123 % of control | dose: 120.0 mg/kg/injection, schedule: Q01DX009 (ip), vehicle: saline with Tween-80 87 % of control | [15] 122 % of control | [16] 112 % of control

Clc1nc(Cl)nc(Nc2ccccc2Cl)n1
inactive: dose: 6.25 mg/kg/injection, schedule: Q01DX009 (ip), vehicle: Klucel (hydroxypropylcellulose) (HPC) 96 % of control | dose: 12.5 mg/kg/injection, schedule: Q01DX009 (ip), vehicle: Klucel (hydroxypropylcellulose) (HPC) 99 % of control | dose: 25.0 mg/kg/injection, schedule: Q01DX009 (ip), vehicle: Klucel (hydroxypropylcellulose) (HPC) 96 % of control | [13] 99 % of control

Nc1cc(=O)[nH]c(O)c1C(=O)O
inactive: [17] 95 % of control

CSc1nc(N)c(C(=O)Nc2cccc3ccccc23)s1
inactive: [13] 100 % of control | [14] 97 % of control | [15] 97 % of control

Cc1ccc(S(=O)(=O)OCC(C)(C)CC#N)cc1
inactive: [2] 96 % of control | [3] 96 % of control | [4] 100 % of control

CCOC(=O)N1C=CN(C(=O)OCC)C1c1nccn1C(=O)OCC
inactive: [5] 100 % of control | [6] 96 % of control | [7] 105 % of control

N#CC1=C(C#N)C(=O)c2ccccc2C1=O
inactive: [17] 104 % of control | [5] 104 % of control

CCn1c2ccccc2c2cc(NC(=O)NC(=O)c3ccccc3)ccc21
inactive: dose: 50.0 mg/kg/injection, schedule: Q01DX005 (ip), vehicle: saline with Tween-80 90 % of control | dose: 100.0 mg/kg/injection, schedule: Q01DX005 (ip), vehicle: saline with Tween-80 90 % of control | dose: 200.0 mg/kg/injection, schedule: Q01DX005 (ip), vehicle: saline with Tween-80 87 % of control

c1ccc(C2=NC3CCCC[C@H]3O2)cc1 (some centres not stated)
inactive: dose: 30.0 mg/kg/injection, schedule: Q01DX005 (ip), vehicle: saline with Tween-80 108 % of control | [10] 101 % of control and 96 % of control | [11] 105 % of control | [12] 100 % of control

Nc1nc2c(nnn2C2OC(COP(=O)(O)OP(=O)(O)O)C(O)C2O)c(=O)[nH]1 (configuration not stated)
inactive: dose: 12.5 mg/kg/injection, schedule: Q01DX001 (ip), vehicle: saline 110 % of control | dose: 25.0 mg/kg/injection, schedule: Q01DX001 (ip), vehicle: saline 110 % of control | dose: 50.0 mg/kg/injection, schedule: Q01DX001 (ip), vehicle: saline 116 % of control | dose: 100.0 mg/kg/injection, schedule: Q01DX001 (ip), vehicle: saline 117 % of control

c1ccc(CNc2ccnc3c2ccc2ccccc23)cc1
inactive: dose: 100.0 mg/kg/injection, schedule: Q01DX001 (ip), vehicle: Klucel (hydroxypropylcellulose) (HPC) 100 % of control | dose: 200.0 mg/kg/injection, schedule: Q01DX001 (ip), vehicle: Klucel (hydroxypropylcellulose) (HPC) 97 % of control | dose: 400.0 mg/kg/injection, schedule: Q01DX001 (ip), vehicle: Klucel (hydroxypropylcellulose) (HPC) 100 % of control

CC[C@H](CC[C@@H](C)C1CC[C@H]2[C@@H]3CC=C4C[C@@H](OP(=O)(N5CC5)N5CC5)CC[C@]4(C)[C@H]3CC[C@]12C)C(C)C (some centres not stated)
active: [6] 152 % of control | [7] 163 % of control and 171 % of control
inactive: [16] 98 % of control

COC(=O)N1CCC(N)(C#N)CC1
inactive: dose: 12.5 mg/kg/injection, schedule: Q04DX003 (ip), vehicle: Klucel (hydroxypropylcellulose) (HPC) 100 % of control | dose: 25.0 mg/kg/injection, schedule: Q04DX003 (ip), vehicle: Klucel (hydroxypropylcellulose) (HPC) 93 % of control

C=CCn1ccn(C)c1=S
inactive: dose: 100.0 mg/kg/injection, schedule: Q04DX003 (ip), vehicle: saline with Tween-80 101 % of control | dose: 200.0 mg/kg/injection, schedule: Q04DX003 (ip), vehicle: saline with Tween-80 98 % of control | dose: 400.0 mg/kg/injection, schedule: Q04DX003 (ip), vehicle: saline with Tween-80 102 % of control

CCN(CC)CCCNc1cccc2c(C)cc(OC)nc12
inactive: dose: 12.5 mg/kg/injection, schedule: Q01DX009 (ip), vehicle: saline 92 % of control | dose: 25.0 mg/kg/injection, schedule: Q01DX009 (ip), vehicle: saline 90 % of control | dose: 50.0 mg/kg/injection, schedule: Q01DX009 (ip), vehicle: saline 86 % of control

Reference: PubChem BioAssay AID330 (DTP/NCI, 2004)
